Measurements: patent publication US20140120060A1, “TREATMENT OF RHEUMATOID ARTHRITIS AND ASTHMA USING PI3 KINASE INHIBITORS” (INFINITY PHARMACEUTICALS, INC., priority 2012, published 2014)

What was measured:
B cell = B cell proliferation; type: cell-based
[1] = tested on: developing adjuvant arthritis; assay: Freund's complete adjuvant induced rat model of arthritis; type: in vivo; conditions: reference treatment, dose not stated
Source text: Freund's complete adjuvant induced arthritis in the rat is an experimental model of polyarthritis that has been widely used for nonclinical testing of numerous anti-arthritic agents that are either under nonclinical or clinical investigation, or are currently used as therapeutics in this disease.

SMILES	EC50 (B cell) [nM]	also measured
C[C@H](Nc1ncnc2[nH]cnc12)c1cc2cccc(Cl)c2c(=O)n1C1CC1 [Compound 270]	< 100	
Cc1ccccc1-n1c(Cn2nc(-c3ccc4sc(N)nc4c3)c3c(N)ncnc32)cc2cccc(C)c2c1=O [Compound 276]	< 100	
Cc1cccc2cc(Cn3nc(-c4ccc5sc(N)nc5c4)c4c(N)ncnc43)n(-c3ccccc3)c(=O)c12 [Compound 277]	< 100	
Cc1cccc2cc([C@H](C)Nc3ncnc4[nH]cc(F)c34)n(C3CC3)c(=O)c12 [Compound 278]	< 100	
Cc1cccc2cc([C@H](C)Nc3ncnc4[nH]cc(C#N)c34)n(C3CC3)c(=O)c12 [Compound 289]	< 100	
Cc1cccc2cc([C@H](C)Nc3ncnc4[nH]cnc34)n(-c3cccc(F)c3)c(=O)c12 [Compound 290]	< 100	
CCc1nn(Cc2cc3cccc(C)c3c(=O)n2-c2ccccc2C)c2ncnc(N)c12 [Compound 294]	< 1000	
Cc1ccccc1-n1c(Cn2nc(-c3ccc4nc(N)[nH]c4c3)c3c(N)ncnc32)cc2cccc(C)c2c1=O [Compound 295]	< 100	
CC(=O)Nc1nc2ccc(-c3nn(Cc4cc5cccc(C)c5c(=O)n4-c4ccccc4C)c4ncnc(N)c34)cc2[nH]1 [Compound 296]	< 100	
Cc1ccccc1-n1c(Cn2nc(C(N)=O)c3c(N)ncnc32)cc2cccc(C)c2c1=O [Compound 298]	< 100	
Cc1ccccc1-n1c(Cn2nc(C(=O)NO)c3c(N)ncnc32)cc2cccc(C)c2c1=O [Compound 300]	< 100	
C=Cc1nn(Cc2cc3cccc(C)c3c(=O)n2-c2ccccc2)c2ncnc(N)c12 [Compound 301]	< 100	
Cc1cccc2cc(Cn3nc(-c4ccc5nc(N)[nH]c5c4)c4c(N)ncnc43)n(-c3ccccc3)c(=O)c12 [Compound 302]	< 100	
CCc1nn(Cc2cc3cccc(C)c3c(=O)n2-c2ccccc2)c2ncnc(N)c12 [Compound 303]	< 100	
Cc1ccccc1-n1c(Cn2nc(C(F)F)c3c(N)ncnc32)cc2cccc(C)c2c1=O [Compound 306]	< 100	
Cc1cccc2cc(Cn3nc(C(F)F)c4c(N)ncnc43)n(-c3ccccc3)c(=O)c12 [Compound 308]	< 100	
Cc1ccccc1-n1c(Cn2nc(CF)c3c(N)ncnc32)cc2cccc(C)c2c1=O [Compound 310]	< 100	
Cc1cccc2cc(Cn3nc(CF)c4c(N)ncnc43)n(-c3ccccc3)c(=O)c12 [Compound 311]	< 100	
Cc1ccccc1-n1c(Cn2nc(CC#N)c3c(N)ncnc32)cc2cccc(C)c2c1=O [Compound 312]	< 1000	
C[C@@H]1C[C@H]2[C@@H]3CCC4=CC(=O)C=C[C@]4(C)[C@@]3(F)[C@@H](O)C[C@]2(C)[C@@]1(O)C(=O)CO [dexamethasone, reference compound]		inhibition of ankle diameter AUC (d7-14) increase [1]: 71%; reduction of histopathologic bone resorption [1]: 97%; reduction of histopathologic inflammation [1]: 56%
